The results in this text go back to ChEMBL document CHEMBL4616652, “Bioactive Polyhydroxanthones from Penicillium purpurogenum” (J Nat Prod, 2020).

Converted amounts (≈) assume the structure as drawn. Where a name gives a salt, the structure may show the parent alone.

In one experiment the test system is Shigella dysenteriae. Kind of experiment: Antimicrobial activity against Shigella dysenteriae incubated for 7 hrs by alamar Blue assay. Format: functional. For orientation: Resazurin is reduced to fluorescent resorufin, in cell work by metabolically active cells.
In a further experiment the test system is HepG2. Kind of experiment: Cytotoxicity against human HepG2 cells after 72 hrs by MTT assay. Format: functional, cell-based. To be noted: HepG2, 72 h. On the technique in general: Tetrazolium assays rely on reduction of a dye to a coloured formazan, in cell work by metabolically active cells.
The next experiment has as its system HeLa. Kind of experiment: Cytotoxicity against human HeLa cells after 72 hrs by MTT assay. Format: functional, cell-based.
The test system of a further experiment is A549. Kind of experiment: Cytotoxicity against human A549 cells after 72 hrs by MTT assay. To be noted: A549, 72 h. Format: functional, cell-based.
In the next experiment the test system is Vero. Kind of experiment: Cytotoxicity against African green monkey Vero cells incubated for 72 hrs by MTT assay. Format: cell-based. To be noted: Chlorocebus sabaeus.
Experiment [1] relates to Staphylococcus aureus. Kind of experiment: Antimicrobial activity against Staphylococcus aureus incubated for 7 hrs by alamar Blue assay. Format: functional.
The test system of experiment [2] is Staphylococcus aureus. Description: Antimicrobial activity against methicillin-resistant Staphylococcus aureus incubated for 7 hrs by alamar Blue assay. Format: functional.

Regarding `C[C@@]12O[C@@H]1C(O)=C1C(=O)c3c(ccc(-c4ccc5c(c4O)C(=O)C4=C(O)[C@H]6O[C@@]6(C)[C@H](OC(=O)CCC(=O)O)[C@]4(C)O5)c3O)O[C@@]1(C)[C@H]2OC(=O)CCC(=O)O`, the MIC in the experiment with Shigella dysenteriae came out at 100 µg/mL (≈ 128 µM); against Staphylococcus aureus [1], 12.5 µg/mL (≈ 16.1 µM); against Staphylococcus aureus [2], 100 µg/mL (≈ 128 µM). Moreover, the IC50 in the experiment on HepG2, in the experiment with HeLa, in the experiment on A549 and in the experiment on Vero was more than 50 µM in each case.
`COC(=O)CCC(=O)O[C@H]1[C@]2(C)O[C@@H]2C(O)=C2C(=O)c3c(ccc(-c4ccc5c(c4O)C(=O)C4=C(O)[C@H]6O[C@@]6(C)[C@H](OC(=O)CCC(=O)OC)[C@]4(C)O5)c3O)O[C@]21C`: the values for the MIC in the experiment on Shigella dysenteriae, in the experiment on Staphylococcus aureus [1] and with Staphylococcus aureus [2] were 6.3 µg/mL (≈ 7.81 µM), 0.4 µg/mL (≈ 0.496 µM) and 0.4 µg/mL (≈ 0.496 µM), respectively. Besides, the IC50 with HepG2 was 0.5 µM; in the experiment with HeLa, 0.3 µM; with A549 it was 0.6 µM; with Vero, more than 50 µM.
Consider `C[C@@H]1C[C@@H](O)[C@@]2(O)C(=O)c3c(O)cccc3O[C@]2(C)[C@H]1O`, for which the MIC in the experiment on Shigella dysenteriae and in the experiment with Staphylococcus aureus [1] was more than 100 µg/mL each time. In addition, the IC50 in the experiment on HepG2, in the experiment on HeLa, with A549 and with Vero was more than 50 µM each time.
For `C[C@@]12O[C@@H]1[C@H](O)[C@]1(O)C(=O)c3c(O)cccc3O[C@@]1(C)[C@H]2O`, the MIC against Shigella dysenteriae and with Staphylococcus aureus [1] was more than 100 µg/mL in each case. In addition, the IC50 in the experiment with HepG2, in the experiment on HeLa, in the experiment with A549 and in the experiment on Vero was more than 50 µM throughout.
On to `C[C@@]12O[C@]3(C(=O)c4c(O)cccc4O[C@@]3(C)[C@H]1O)[C@@H](O)[C@H]2O`, for which the MIC with Shigella dysenteriae and against Staphylococcus aureus [1] was more than 100 µg/mL in each case. For the same compound, the half-inhibitory concentration (IC50) in the experiment with HepG2, with HeLa, in the experiment with A549 and with Vero was more than 50 µM each time.
For the compound `CC1=C[C@H](O)[C@]2(O)C(=O)c3c(O)cccc3O[C@@]2(C)[C@H]1OC(=O)CCC(=O)O`, the MIC against Shigella dysenteriae and against Staphylococcus aureus [1] was more than 100 µg/mL in each case. The IC50 in the experiment with HepG2, with HeLa, with A549 and in the experiment on Vero was more than 50 µM throughout.
`COC(=O)CCC(=O)O[C@H]1[C@]2(C)O[C@@H]2C(O)=C2C(=O)c3c(ccc(-c4ccc5c(c4O)C(=O)C4=C(O)[C@H]6O[C@@]6(C)[C@H](OC(=O)CCC(=O)O)[C@]4(C)O5)c3O)O[C@]21C`: the minimal inhibitory concentration (MIC) came out at 6.3 µg/mL (≈ 7.95 µM) against Shigella dysenteriae, 3.1 µg/mL (≈ 3.91 µM) against Staphylococcus aureus [1] and 12.5 µg/mL (≈ 15.8 µM) in the experiment on Staphylococcus aureus [2]. The half-inhibitory concentration (IC50) in the experiment with HepG2 was 4.8 µM; in the experiment with HeLa, 7.6 µM; in the experiment with A549, 32 µM; with Vero, more than 50 µM.
On to `CC1=C[C@H](O)[C@]2(O)C(=O)c3c(O)cccc3O[C@@]2(C)[C@H]1O`, for which the MIC against Shigella dysenteriae and in the experiment with Staphylococcus aureus [1] was more than 100 µg/mL each time. The 50% inhibitory concentration (IC50) in the experiment with HepG2, with HeLa, in the experiment on A549 and in the experiment with Vero was more than 50 µM throughout.
On to `COc1cccc2c1C(=O)c1c(O)c3c(c(O)c1C2=O)C[C@@](O)(C(=O)CO)C[C@@H]3O[C@H]1C[C@H](N)[C@H](O)[C@H](C)O1` [DOXORUBICIN HYDROCHLORIDE], for which the half-inhibitory concentration (IC50) with HeLa came to 0.5 µM; in the experiment with A549, 0.7 µM.
Regarding `NC[C@H]1O[C@H](O[C@H]2[C@H](O)[C@@H](O[C@H]3O[C@H](CO)[C@@H](O)[C@H](N)[C@H]3O)[C@H](N)C[C@@H]2N)[C@H](O)[C@@H](O)[C@@H]1O` [KANAMYCIN], the MIC against Shigella dysenteriae is 0.2 µg/mL (≈ 0.413 µM); in the experiment with Staphylococcus aureus [1], 0.8 µg/mL (≈ 1.65 µM); in the experiment on Staphylococcus aureus [2], more than 100 µg/mL.
Turning to `CN[C@H](CC(C)C)C(=O)N[C@H]1C(=O)N[C@@H](CC(N)=O)C(=O)N[C@H]2C(=O)N[C@H]3C(=O)N[C@H](C(=O)N[C@H](C(=O)O)c4cc(O)cc(O)c4-c4cc3ccc4O)[C@H](O)c3ccc(c(Cl)c3)Oc3cc2cc(c3O[C@@H]2O[C@H](CO)[C@@H](O)[C@H](O)[C@H]2O[C@H]2C[C@](C)(N)[C@H](O)[C@H](C)O2)Oc2ccc(cc2Cl)[C@H]1O` [VANCOMYCIN], 0.8 µg/mL (≈ 0.552 µM) was the least that counted as inhibitory with Staphylococcus aureus [2] (MIC).

Usually MIC stands for the lowest concentration that inhibits growth of the organism. In general, IC50 refers to the concentration needed to halve the response being measured.
